Assay results published in patent US20120184590A1, “FORMULATIONS OF INDOLE-3-CARBINOL DERIVED ANTITUMOR AGENTS WITH INCREASED ORAL BIOAVAILABILITY” (UNIVERSITY OF KANSAS, priority 2009, published 2012).
Entries after “also recorded” stand apart in the source; their conditions may differ. Marks after values point to notes of the source that are not given here.

Experiment: Clinical observations and clinical pathology in dogs
Assay type: in vivo, beagle dogs
Conditions: for ALT / AST / LDH: day 2 following a single dose
Experimental: For both species, each animal was part of each experimental group, with a 7-day interval between treatments to allow for washout of the dosing formulation and its effects. Dosing formulations of SR13668 were administered by oral gavage (intragastric) or intravenous (i.v.) injection as a single dose or once daily for seven consecutive days. Oral to doses were administered at a dosing volume of 5 mL/kg of body weight, while intravenous doses were administered at a dosing volume of 0.5 mL/kg of body weight. Dogs were dosed with 93.6 mg/m^2 SR13668 intravenously in DMSO:PEG300 15:85 (v/v) or orally in Solutol® vehicle (two groups, fed and after an overnight fast). Monkeys were dosed with 84.2 mg/m^2 SR13668 intravenously in DMSO:PEG300 15:85 (v/v) or orally (336.7 mg/m^2 SR13668 for the oral high dose group) in PEG400:Labrasol® 1:1 (v/v) or Solutol® vehicles. Vehicle control groups were used to assess the tolerability of the vehicle and for clinical pathology evaluations.
At the end of each dosing period, the animals were examined for detailed clinical signs and symptoms (i.e., alterations of teeth, nose, eyes, perineum, pelage and body orifices; changes in appearance or behavior) and/or presence of any tissue masses. Body weights were recorded prior to treatment and daily during each testing interval. Quantitative (grams/day) food consumption data were recorded for dogs on a daily basis during each testing interval. Qualitative food consumption observations were recorded for monkeys on a daily basis during each testing interval. Blood samples for clinical pathology (clinical chemistry, hematology, and coagulation) parameter evaluation were collected from dogs and monkeys prior to dosing and on Days 2 and 8 post-dose, as well as from monkeys on Days 15 and 30 post-dose.

[1] = 93.6 mg/m^2 (4.68 mg/kg) iv, DMSO:PEG300 15:85 v/v, fed
[2] = 93.6 mg/m^2 (4.68 mg/kg) oral gavage, Solutol, fasted
[3] = 93.6 mg/m^2 (4.68 mg/kg) oral gavage, Solutol, fed

Question: Which “adverse treatment-related clinical observations” value does the source give for `CCOC(=O)c1ccc2[nH]c3c(OC)c4[nH]c5ccc(C(=O)OCC)cc5c4cc3c2c1` [SR13668, 2,10-dicarbethoxy-6-methoxy-5,7-dihydro-indolo-(2,3-b)carbazole] here?
Answer: Its value is “vomiting in fasted dogs”.

Question: What about the “effects on body weights, body weight gains or food consumption” value of the same compound?
Answer: The value was “No significant treatment-related effects on body weights, body weight gains or food consumption”.

Question: What about the “effects on clinical pathology (clinical chemistry, hematology, coagulation)” value of the same compound?
Answer: The value was “did not cause untoward hematology, clinical chemistry, or coagulation effects; also recorded: No treatment-related effects on any clinical pathology variables”.

Question: And the mortality or morbidity?
Answer: Its mortality or morbidity is “no mortalities or morbidity”.

Question: And the ALT [1]?
Answer: Its ALT is 41.8 ± 5.4 IU/L.

Question: And the AST [1]?
Answer: Its AST is 30.8 ± 5.2 IU/L.

Question: What about the LDH [1] of the same compound?
Answer: Its LDH is 54.8 ± 23 ^c IU/L.

Question: What about the ALT [2] of the same compound?
Answer: Its ALT is 44.8 ± 10 IU/L.

Question: And the AST [2]?
Answer: Its AST is 30.8 ± 7.2 IU/L.

Question: And the LDH [2]?
Answer: Its LDH is 56.3 ± 9.4 IU/L.

Question: And the ALT [3]?
Answer: Its ALT is 39.5 ± 4.7 IU/L.

Question: And the AST [3]?
Answer: The AST was 29.3 ± 3.6 IU/L.

Question: What about the LDH [3] of the same compound?
Answer: Its LDH is 30.3 ± 6.2 ^c IU/L.
